Values quoted from earlier work, collected in US12569533B2, “Bruising and filler compositions and methods for use” (Alastin Skincare, Inc., priority 2021, dated 2026).

Test system: hyaluronic acid level
Conditions: ex vivo human skin model

CCCCCCCC(=O)CCc1ccc(O)c(OC)c1 [Hydroxymethoxyphenyl decanone]
stimulation of dermal hyaluronic acid level versus placebo (dermal): 259% | stimulation of epidermal hyaluronic acid level versus placebo (epidermal): 198%
